The conditions of experiment [1]: K+ versus Na+; cited from earlier work.
Experiment [2] relates to Ca2+-activated non-selective cation (NSC) channels on the T84 cells. In words: K+ efflux of T84 cells activated with A23187, measured with the GISFET. The experiment is classed as cell-based, human. Also on record: dose or concentration left out as unconfirmed. The note with it: T84 cells in normal saline solution. An excerpt:
In Example 2, GISFETs as contemplated by the present invention were fabricated as described in Example 1 and were then used to measure the K^+ efflux of human colonic epithelial cells. FIG. 9 is a schematic illustrating the use of the graphene ion sensitive field effect transistor (GISFET) of the present invention to determine the K^+ efflux from cells.
Specifically, human colonic T84 epithelial cells were used to investigate performance of the GISFET of the present invention. The Ca^2+-activated non-selective cation (NSC) channels on the T84 cells were activated with Ca^2+ ionophore A23187 ([…]), and then the corresponding K^+ efflux was detected and quantified by measuring the extracellular K+ ion concentration.
First, and referring to FIG. 9, cells 150 were plated on 25 millimeter diameter graphene-coated glass coverslips 148 and placed underneath of a specially designed mold 146 in a well plate 144. […]
Referring now to FIG. 10, after about 2 minutes of stabilization of the GISFET 101 in the buffer solution 152 in the well plate 144, the A23187 activating chemical was added to the well plate 144, which caused a consistent increase in current for about 20 minutes thereafter. […] By calculating the K^+ concentration based on the calibration data, the K^+ concentration could then be determined to be about 50 uM. […]

We go through two compounds from US10900927B2, “Graphene field effect transistors for detection of ions” (UNIVERSITY OF SOUTH CAROLINA, priority 2018, dated 2021).

Structures are written as SMILES.

Turning to `CC(C)[C@@H]1NC(=O)[C@H](C)OC(=O)[C@@H](C(C)C)NC(=O)[C@@H](C(C)C)OC(=O)[C@H](C(C)C)NC(=O)[C@H](C)OC(=O)[C@@H](C(C)C)NC(=O)[C@@H](C(C)C)OC(=O)[C@H](C(C)C)NC(=O)[C@H](C)OC(=O)[C@@H](C(C)C)NC(=O)[C@@H](C(C)C)OC1=O` [valinomycin], the “selectivity to K+ ions over Na+ ions (weaker valinomycin-Na+ complex)” value in experiment [1] is 10,000 fold. As for `CNc1ccc2oc(C[C@H]3O[C@@]4(CC[C@H]3C)O[C@H]([C@H](C)C(=O)c3ccc[nH]3)[C@H](C)C[C@H]4C)nc2c1C(=O)O` [A23187], the “duration of consistent increase in GISFET current after addition” value in experiment [2] is “about 20 minutes”. In experiment [2] (calculated from GISFET calibration data), the “extracellular K+ concentration from K+ efflux after activation” value is listed as “about 50 uM”.
